The numbers were not newly measured in patent publication US20210087552A1, “Methods, Compositions, and Systems for Classification of Genetic Variants of Unknown Significance” (Laboratory Corporation of America Holdings, priority 2019, published 2021), which cites them from elsewhere.

The subject of data set [1] is individual mutations in ABL1, ASXL1, BRAF, CDKN2A, CEBPA, CSF3R, DNMT3A, EZH2, FLT3, IDH1, IDH2, JAK2, KIT, KMT2A, KRAS, NF1, NPM1, NRAS, PDGFRA, PML PTPN11 ….
Data set [2] deals with individual mutations in ABL1, ASXL1, BRAF, CSF3R, DNMT3A, EZH2, FLT3, IDH2, JAK2, KIT, KRAS, NF1, NRAS, PDGFRA, PML PTPN11, and TET2.

Structures are written as SMILES.

In the case of `Nc1ccn([C@@H]2O[C@H](CO)[C@@H](O)[C@@H]2O)c(=O)n1` [cytarabine], the “mutation associated with resistance to chemotherapeutic agent” value in data set [1] is “resistance”.
For `Cc1cn(-c2cc(NC(=O)c3ccc(C)c(Nc4nccc(-c5cccnc5)n4)c3)cc(C(F)(F)F)c2)cn1` [nilotinib], the “mutation associated with resistance to agent” value in data set [2] is on record as “resistance”.
Turning to `CC(C)(C)c1nc(-c2cccc(NS(=O)(=O)c3c(F)cccc3F)c2F)c(-c2ccnc(N)n2)s1` [dabrafenib], the “mutation associated with resistance to chemotherapeutic agent” value in data set [1] is “resistance”.
